Test results taken from patent US9938322B2, “β-hairpin peptidomimetics” (priority 2013, dated 2018).
*1 amine or outer side, *2 acyl side, *3 side chain or, on linkers, in order; H or OH if unused. Where a SMILES comes first, the peptide text is derived from it. Side-chain parts run from the residue outwards. [ ]: non-standard residue; d: D form. The star is where a group is joined. NH(4-Cl-phenyl) = Clc1ccc(N*)cc1; Cha = N[C@@H](CC1CCCCC1)C(=O)O; Tle = CC(C)(C)[C@H](N)C(=O)O; NH(2-ClPh) = Clc1ccccc1N*; dDab = NCC[C@@H](N)C(=O)O; Orn = NCCC[C@H](N)C(=O)O; Dab = NCC[C@H](N)C(=O)O; Dap = NC[C@H](N)C(=O)O; CO = O=C([*:1])[*:2]

Experiments:
Format in all cases: cell-based
[1] = test system: human red blood cells (hRBC); assay: Hemolysis of human red blood cells; details: 100 μg/ml, 20% hRBC, 1 h at 37° C.
In short: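 Washed fresh human erythrocytes (20% v/v, about 0.9×10^9 cells/ml final) incubated with peptide at 100 μg/ml for 1 h at 37° C with shaking. Supernatant OD540 read; hemolysis expressed relative to 2.5% Triton X-100 (100%) and PBS with 0.001% acetic acid (0%).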

[2] = test system: Klebsiella pneumoniae ATCC 13883; details: Mueller-Hinton II broth + 0.02% BSA, 18-20 hours at 35° C.
Description: (§1) Lyophilized peptides were weighed on a Microbalance (Mettler MT5) and dissolved in sterile water to a final concentration of 1 mg/ml. Stock solutions were kept at +4° C., light protected.
(§2) The selective antimicrobial activities of the peptides were determined in 96-well plates (Greiner, polystyrene) by the standard NCCLS broth microdilution method (National Committee for Clinical Laboratory Standards 1993. Methods for dilution antimicrobial susceptibility tests for bacteria that grow aerobically, 3rd ed. Approved standard M7-A6; National Committee for Clinical laboratory standards, Wayne, Pa.) with slight modifications. Inocula of the microorganisms were diluted into Mueller-Hinton II (MH, cation adjusted) broth+0.02% BSA and compared with a 0.5 McFarland standard to give appr. 10^6 colony forming units (CFU)/ml. Aliquots (50 μl) of inoculate were added to 50 μl of MH broth+0.02% BSA containing the peptide in serial two-fold dilutions. The following microorganisms were used to determine antibiotic selectivity of the peptides: Escherichia coli ATCC 25922, Klebsiella pneumoniae ATCC 13883 and Acinetobacter baumannii DSM 30008.

[3] = test system: Escherichia coli ATCC 25922; details: Mueller-Hinton II broth + 0.02% BSA, 18-20 hours at 35° C.
Description: as §1, §2

[4] = test system: Acinetobacter baumannii DSM 30008; details: Mueller-Hinton II broth + 0.02% BSA, 18-20 hours at 35° C.
Description: as §1, §2

In the case of `C[C@@H]1NC(=O)[C@H](CNC(=O)Nc2ccc(Cl)cc2)NC(=O)[C@@H]2CCCN2C(=O)[C@H]2CCCN2C(=O)[C@H](CO)NC(=O)[C@H](C)NC(=O)[C@H](C(C)(C)C)NC(=O)[C@H](CCN)NC(=O)[C@H](Cc2c[nH]c3ccccc23)NC(=O)[C@H](CCN)NC(=O)[C@@H](CCN)NC(=O)[C@H](CCCN)NC(=O)[C@H](CCN)NC(=O)[C@H](CC2CCCCC2)NC1=O` [compound 53] (cyclo([Dap]([CO-NH(4-Cl-phenyl)])A[Cha][Dab][Orn][dDab][Dab]W[Dab][Tle]AS[dP]P)), the “Hemolysis at 100 μg/ml” value [1] is reported as 2%, the “Klebsiella pneumoniae ATCC 13883 MIC” value [2] is reported as 1 µg/mL and the “Escherichia coli ATCC 25922 MIC” value [3] is reported as 1 µg/mL. For the same compound, the “Acinetobacter baumannii DSM 30008 MIC” value [4] was 1 µg/mL.
With `CC(C)C[C@@H]1NC(=O)[C@@H]2CCCN2C(=O)[C@H]2CCCN2C(=O)[C@H](CO)NC(=O)[C@H](C)NC(=O)[C@H](C(C)(C)C)NC(=O)[C@H](CCN)NC(=O)[C@H](Cc2c[nH]c3ccccc23)NC(=O)[C@H](CCN)NC(=O)[C@@H](CCN)NC(=O)[C@H](CCCN)NC(=O)[C@H](CCN)NC(=O)[C@H](CC2CCCCC2)NC(=O)[C@H](CNC(=O)Nc2ccccc2Cl)NC1=O` [compound 38] (cyclo(L[Dap]([CO-NH(2-ClPh)])[Cha][Dab][Orn][dDab][Dab]W[Dab][Tle]AS[dP]P)) the “Hemolysis at 100 μg/ml” value [1] was 4%, the “Klebsiella pneumoniae ATCC 13883 MIC” value [2] was 1 µg/mL and the “Escherichia coli ATCC 25922 MIC” value [3] was 1 µg/mL. For the same compound, the “Acinetobacter baumannii DSM 30008 MIC” value [4] was 1 µg/mL.
